Results as given in patent US9540338B2, “Substituted cinnamic acid amides for treating pain” (NIPPON ZOKI PHARMACEUTICAL CO., LTD., priority 2012, dated 2017).
Structures can show the parent of a compound that is named as a salt. Marks after values point to notes of the source that are not given here.

Assays:
[1] = system: Chung model rat; assay: Analgesic efficacy test (2): Chung model rat, neuropathic pain model (allodynia, von Frey filament); assay type: in vivo, rats; conditions: mean ± standard error
Method: An analgesic efficacy test was conducted using a Chung model rat, a neuropathic pain model. Nine-week old Wistar male rats were previously bred as an experimental animal, and a model rat was then prepared in accordance with the method of Kim and Chung (Pain, 50, 355-363, 1992). Specifically, left L5 spinal nerves of rats were exposed under anesthetization with pentobarbital (40 mg/kg, intraperitoneal administration), and firmly ligated with 5-0 silk yarn at L5 dorsal root ganglion peripheral side. The animals were placed in a transparent acrylic cage of which bottom was wire netted The measurement of allodynia was carried out using von Frey filament (manufactured by North Coast Medical Inc.) and a 50% reaction threshold was calculated according to an up-down method, in accordance with a method of Chaplan et al. (J. Neurosci. Method, 53, 55-63, 1994). The 50% reaction thresholds were measured twice before injury of the spinal nerve, and those animals of which thresholds were outside the standard were removed from the operation of spinal nerve injury. On or after 14 days from the spinal nerve injury, a 50% reaction threshold was measured, and those showing thresholds of 1 g or more and less than 4 g were used as experimental animal. The group was constituted by 7 or 8 rats per group so that an average of a 50% reaction threshold for each group would be nearly even.
A solution or suspension prepared by dissolving or suspending a compound of the present invention in a 0.5% (w/v) aqueous CMC-Na solution was orally administered as a test substance in a single dose. Also, a 0.5% (w/v) aqueous CMC-Na solution was administered in the same manner to the control group for nerve injury. The measurements of allodynia were carried out with the passage of time after administration, and a 50% reaction threshold (mean±standard error) of each group at action peak was calculated. In the test for significance difference, Bartlett's test was carried out in the comparison between multiple groups of the group administered with test substance with the control group for nerve injury. In the case of homoscedasticity, Dunnett's multiple comparison test of parametrics, and in the case of heteroscedasticity, Dunnett's multiple comparison test of non-parametrics were used. In all cases, significance difference was considered to be found at P<0.05 (indicated as “*” in the tables).

[2] = system: ddY-type mice; assay: Analgesic efficacy test (1): acetic acid writhing test; assay type: in vivo; conditions: Mus musculus, writhing number, mean ± standard error, 8 mice per group, read-out: Suppressive Rate; for inhibition in vivo at 10 mg/kg: oral single dose 10 mg/kg; for inhibition in vivo at 100 mg/kg: oral single dose 100 mg/kg
Excerpt: A compound of the present invention was orally administered to mice, to carry out an analgesic efficacy test according to acetic acid writhing test. As an experimental animal, 4-week old male ddY-type mice were previously bred, and thereafter 8 mice per one group were used in the experiment. A solution or suspension prepared by dissolving or suspending a compound of the present invention in a 0.5% (w/v) aqueous CMC-Na solution was orally administered as a test substance in a single dose. While, to a control group, a 0.5% (w/v) aqueous CMC-Na solution was administered in the same manner After 25 minutes from administration, the mice were intraperitoneally administered with a 0.7% (v/v) acetic acid/physiological saline at the dose of 10 mL/kg. From 5 minutes thereafter, writhing number in a 10-minute period was counted, and a suppressive rate for each individual (mean±standard error) was calculated by the following formula: […]
In the test for significance difference, Bartlett's test was carried out in the comparison between multiple groups of the group administered with test substance with the control group. In the case of homoscedasticity, Dunnett's multiple comparison test of parametrics, and in the case of heteroscedasticity, Dunnett's multiple comparison test of non-parametrics were used. In addition, in the test of dose dependency, Jonckheere-Terpstra's test was used. In all cases, significance difference was considered to be found at P<0.05 (indicated as “*” in the table).

[3] = oral 1 mg/kg, measurement point 90 minute (action peak)
[4] = oral 10 mg/kg, measurement point 90 minute (action peak)
[5] = oral 1 mg/kg, measurement point 60 minute (action peak)
[6] = oral 10 mg/kg, measurement point 60 minute (action peak)
[7] = oral 1 mg/kg, measurement point 30 minute (action peak)
[8] = oral 10 mg/kg, measurement point 30 minute (action peak)

Row | melting point [°C] | SMILES | 50% Reaction Threshold, Group Administered with Test Substance, After Administration [1, 3] | 50% Reaction Threshold, Group Administered with Test Substance, After Administration [1, 4] | 50% Reaction Threshold, Group Administered with Test Substance, After Administration [1, 5] | 50% Reaction Threshold, Group Administered with Test Substance, After Administration [1, 6] | further results
1 | 124 to 126 | O=C(/C=C/c1ccccc1F)NCCn1cccn1 [Compound 38, (E)-3-(2-Fluorophenyl)-N-[2-(pyrazol-1-yl)ethyl]-2-propenamide] | 2.74 ± 0.23 g | 4.06 ± 0.52* g | – | – | –
2 | 110 to 112 | O=C(/C=C/c1ccccc1F)NCCn1ccnn1 [Compound 40, (E)-3-(2-Fluorophenyl)-N-[2-([1,2,3]triazol-1-yl)ethyl]-2-propenamide] | – | – | 3.61 ± 0.41 g | 5.86 ± 1.17* g | –
3 | 127 to 129 | Cc1nccn1CCNC(=O)/C=C/c1ccccc1F [Compound 42, (E)-3-(2-Fluorophenyl)-N-[2-(2-methylimidazol-1-yl)ethyl]-2-propenamide] | – | – | – | – | 50% Reaction Threshold, Group Administered with Test Substance, After Administration [1, 7]: 2.60 ± 0.32 g; 50% Reaction Threshold, Group Administered with Test Substance, After Administration [1, 8]: 4.24 ± 0.35* g
4 | 121 to 122 | O=C(/C=C/c1ccc(F)cc1)NCCCN1CCSCC1 [Compound 60, (E)-3-(4-Fluorophenyl)-N-(3-thiomorpholinopropyl)-2-propenamide] | – | – | – | – | 50% Reaction Threshold, Group Administered with Test Substance, After Administration [1, 7]: 4.03 ± 0.54 g; 50% Reaction Threshold, Group Administered with Test Substance, After Administration [1, 8]: 8.45 ± 1.01* g
5 | 178 to 179 | Cl.O=C(/C=C/c1ccccc1F)NCCCN1CCSCC1 [Compound 61, (E)-3-(2-Fluorophenyl)-N-(3-thiomorpholinopropyl)-2-propenamide hydrochloride] | – | – | 10.64 ± 1.38* g | 11.81 ± 1.47* g | –
6 | 252 to 253 | Cl.O=C(/C=C/c1ccccc1F)NCCCN1CCS(=O)(=O)CC1 [Compound 62, (E)-N-[3-(1,1-Dioxo-1,4-thiazinan-4-yl)propyl]-3-(2-fluorophenyl)-2-propenamide hydrochloride] | 6.17 ± 1.33 g | 9.22 ± 1.28* g | – | – | –
7 | 247 to 248 | Cl.O=C(/C=C/c1ccc(F)cc1)NCCCN1CCS(=O)(=O)CC1 [Compound 63, (E)-N-[3-(1,1-Dioxo-1,4-thiazinan-4-yl)propyl]-3-(4-fluorophenyl)-2-propenamide hydrochloride] | 3.60 ± 0.35 g | 6.74 ± 0.62* g | – | – | –
8 | 154 to 156 | Cl.N=C(N)NCCCCNC(=O)/C=C/c1ccccc1F [Compound 65, (E)-3-(2-Fluorophenyl)-N-(4-guanidinobutyl)-2-propenamide hydrochloride] | – | – | 5.01 ± 0.52* g | 5.24 ± 0.47* g | –
9 | 130 to 131 | O=C(/C=C/c1ccc(F)cc1)NCCCN1CC[S+]([O-])CC1 [Compound 67, (E)-3-(4-Fluorophenyl)-N-[3-(1-oxo-1,4-thiazinan-4-yl)propyl]-2-propenamide] | – | – | 10.63 ± 1.23* g | 10.71 ± 2.13* g | –
10 | 182 to 183 | Cl.O=C(/C=C/c1ccccc1F)NCCCN1CC[S+]([O-])CC1 [Compound 68, (E)-3-(2-Fluorophenyl)-N-[3-(1-oxo-1,4-thiazinan-4-yl)propyl]-2-propenamide hydrochloride] | 9.04 ± 1.17* g | 11.25 ± 0.94* g | – | – | –

Further lines, the molecule ahead of its results:

Row | SMILES | melting point [°C] | 50% Reaction Threshold, Group Administered with Test Substance, After Administration [1, 3] | 50% Reaction Threshold, Group Administered with Test Substance, After Administration [1, 4] | 50% Reaction Threshold, Group Administered with Test Substance, After Administration [1, 5] | 50% Reaction Threshold, Group Administered with Test Substance, After Administration [1, 6] | further results
11 | O=C(/C=C/c1ccccc1F)NCCc1c[nH]c2ccccc12 [Compound 1, (E)-3-(2-Fluorophenyl)-N-[2-(1H-indol-3-yl)ethyl]-2-propenamide] | – | 6.71 ± 1.33 g | 14.06 ± 0.61* g | – | – | inhibition in vivo at 10 mg/kg [2]: 46.9 ± 7.6%; inhibition in vivo at 100 mg/kg [2]: 62.7 ± 6%
12 | CN1CCN(CCCNC(=O)/C=C/c2ccccc2F)CC1 [Compound 15, (E)-3-(2-Fluorophenyl)-N-[3-(4-methylpiperazin-1-yl)propyl]-2-propenamide dihydrochloride] | – | 7.45 ± 1.95* g | 7.43 ± 1.63* g | – | – | inhibition in vivo at 10 mg/kg [2]: 24.3 ± 12.7%; inhibition in vivo at 100 mg/kg [2]: 44.1 ± 6.6%
13 | O=C(/C=C/c1ccccc1F)NCCN1CCNCC1 [Compound 16, (E)-3-(2-Fluorophenyl)-N-[2-(piperazin-1-yl)ethyl]-2-propenamide dihydrochloride] | – | 5.48 ± 0.82 g | 7.48 ± 1.30 g | – | – | inhibition in vivo at 10 mg/kg [2]: 42.6 ± 9.1%; inhibition in vivo at 100 mg/kg [2]: 65.5 ± 8.9%
14 | Cl.O=C(/C=C/c1ccccc1F)NCCn1ccnc1 [Compound 21, (E)-3-(2-Fluorophenyl)-N-[2-(imidazol-1-yl)ethyl]-2-propenamide hydrochloride] | – | 11.78 ± 1.20* g | – | – | – | 50% Reaction Threshold, Group Administered with Test Substance, After Administration ([1]; oral 0.1 mg/kg, measurement point 90 minute (action peak)): 6.04 ± 0.89 g; 50% Reaction Threshold, Group Administered with Test Substance, After Administration ([1]; oral 0.3 mg/kg, measurement point 90 minute (action peak)): 8.80 ± 1.42* g; inhibition in vivo at 10 mg/kg [2]: 44.5 ± 11.7%; inhibition in vivo at 100 mg/kg [2]: 49.7 ± 4.7%
15 | O=C(/C=C/c1ccc(F)cc1)Nc1ccc(N2CCOCC2)cc1 [Compound 33, (E)-3-(4-Fluorophenyl)-N-[4-morpholinophenyl]-2-propenamide] | 223 to 224 | – | – | 8.93 ± 1.46* g | 9.35 ± 2.10* g | –
16 | C/C(=C\c1ccc(F)cc1)C(=O)NCCCN1CCOCC1 [Compound 46, (E)-3-(4-Fluorophenyl)-2-methyl-N-(3-morpholinopropyl)-2-propenamide] | 78 to 79 | – | – | – | – | 50% Reaction Threshold, Group Administered with Test Substance, After Administration [1, 7]: 7.51 ± 1.60* g; 50% Reaction Threshold, Group Administered with Test Substance, After Administration [1, 8]: 8.70 ± 1.43* g
17 | O=C(/C=C/c1ccccc1F)Nc1cccc(-c2ccno2)c1 [Compound 54, (E)-3-(2-Fluorophenyl)-N-[3-(isoxazol-5-yl)phenyl]-2-propenamide] | 185 to 187 | – | – | – | – | 50% Reaction Threshold, Group Administered with Test Substance, After Administration [1, 7]: 5.18 ± 0.81 g; 50% Reaction Threshold, Group Administered with Test Substance, After Administration [1, 8]: 11.20 ± 1.19* g
18 | O=C(/C=C/c1ccccc1F)NCc1cccc(N2CCSCC2)c1 [Compound 69, (E)-3-(2-Fluorophenyl)-N-[(3-thiomorpholinophenyl)methyl]-2-propenamide] | 154 to 155 | – | – | 3.68 ± 0.40* g | 4.35 ± 0.51* g | –
19 | O=C(/C=C/c1ccccc1F)NCc1cccc(N2CC[S+]([O-])CC2)c1 [Compound 70, (E)-3-(2-Fluorophenyl)-N-{[3-(oxo-1,4-thiazinan-4-yl)phenyl]methyl}-2-propenamide] | 156 to 157 | – | – | 4.09 ± 0.34* g | 3.41 ± 0.31* g | –
